Consider 15 compounds from patent US20080275085A1, “Piperidine derivative and use thereof” (priority 2007, published 2008).

Where a name gives a salt, the structure may show the parent alone.

One data set deals with T1, substance P receptor (Homo sapiens, UniProt P25103).
T1 construct: The receptor was prepared from human lymphoblast cells (IM-9); endogenous in cells; host or cells: IM-9 human lymphoblast cells (membrane fraction, 100,000xG precipitate)
In words: Radioligand receptor binding inhibitory activity (125I-BHSP binding, receptor from IM-9 cells). The following applies: receptor from human lymphoblast cells (IM-9); radioligand 125I-BHSP; 25° C., 30 min. The protocol: Radioligand Receptor Binding Inhibitory Activity (Binding Inhibitory Activity Using Receptor from Human Lymphoblast Cells (IM-9))
The method of M. A. Cascieri et al., “Molecular Pharmacology, vol. 42, p. 458 (1992)” was modified and used. The receptor was prepared from human lymphoblast cells (IM-9).
IM-9 cells (2×10^5 cells/mL) were inoculated and incubated for 3 days, which was then subjected to centrifugation for 10 min. at 500×G to give cell pellets. The obtained pellets were washed with PBS (GIBCO), disrupted in buffer A (50 mM tris.hydrochloric acid buffer (pH 7.4) containing 120 mM sodium chloride, 5 mM potassium chloride, 2 μg/mL chymostatin, 40 μg/mL bacitracin, 40 μg/mL APMSF, 1 mM ethylenediamine tetra acetic acid) using a polytron.homogenizer [manufactured by Kinematika, Germany], and centrifuged at 100,000×G for 40 min. The precipitated fraction was suspended in buffer B (50 mM Tris-HCl (pH 7.4), 0.02% bovine serum albumin, 2 μg/mL chymostatin, 40 μg/mL bacitracin, 40 μg/mL APMSF, 3 mM MgCl2), which was then cryopreserved (−80° C.) as a receptor specimen.
Buffer B (50 μL) was added to a 96 well microassay plate (CORNING). Thereto was added 50 μL of membrane preparation suspended in buffer B at 250 μg/mL. A measurement buffer (50 μL) containing 2% dimethyl sulfoxide was added to examine total binding; 4 μM unlabeled SP (50 μL) diluted with a measurement buffer containing 2% dimethyl sulfoxide was added to examine non-specific binding; and 50 μL of a test compound (containing 2% dimethyl sulfoxide) diluted with a measurement buffer was added to examine binding inhibitory activity of the test compound. In addition, […] ^125I-BHSP solution (50 μL) was added to each well.
After reaction at 25° C. for 30 min, the cells were rapidly filtered through a GF/C filter plate (PerkinElmer) using a cell harvester (manufactured by PerkinElmer) to quench the reaction, and washed 10 times with 250 μL of 50 mM tris-HCl buffer (pH 7.4) containing 0.02% bovine serum albumin. The GF/C filter plate was dried, MicroScinti 0 (20 μL) was added, and the radioactivity was measured with TopCount (manufactured by PerkinElmer). The GF/C filter plate was immersed in 0.3% polyethylene imine for one day before use.
Specific binding is a value obtained by subtracting nonspecific binding from total binding. The binding inhibitory activity of a test compound is shown by a ratio of a value obtained by subtracting a measurement value with addition of a test compound from the total binding, relative to specific binding.
The antagonistic activity of the compounds obtained in the Examples was determined as a concentration necessary for causing 50% inhibition (IC50 value) under the above-described conditions, and the results shown in Table 34 were obtained.
The radio ligand means substance P labeled with [^125I].

T1 sequence (P25103 whole entry): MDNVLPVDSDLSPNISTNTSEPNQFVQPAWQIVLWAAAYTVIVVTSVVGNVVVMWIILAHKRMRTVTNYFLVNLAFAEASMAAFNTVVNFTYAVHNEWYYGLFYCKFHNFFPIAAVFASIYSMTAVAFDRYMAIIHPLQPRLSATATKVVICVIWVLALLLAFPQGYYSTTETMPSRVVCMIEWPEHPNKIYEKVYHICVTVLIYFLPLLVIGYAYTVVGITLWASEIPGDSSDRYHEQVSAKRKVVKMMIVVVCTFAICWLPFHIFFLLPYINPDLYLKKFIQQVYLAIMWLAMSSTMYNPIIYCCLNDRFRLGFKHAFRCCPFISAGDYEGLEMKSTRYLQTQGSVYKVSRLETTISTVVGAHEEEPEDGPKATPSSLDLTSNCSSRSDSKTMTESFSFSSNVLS

In the case of `CC(=O)Nc1ccc(N2CC[C@@H](C(=O)N(C)Cc3cc(C(F)(F)F)cc(C(F)(F)F)c3)[C@H](c3ccc(F)cc3C)C2)nc1` (relative stereo) (as salt: hydrochloride) (hydrate or solvate) [Example 129, (3R*,4R*)-1-[5-(acetylamino)pyridin-2-yl]-N-[3,5-bis(trifluoromethyl)benzyl]-3-(4-fluoro-2-methylphenyl)-N-methylpiperidine-4-carboxamide monohydrochloride], the melting point lay in the range of 213 to 215 °C.

`Cc1cc(F)ccc1[C@@H]1CN(CC(=O)NC2CC2)CC[C@H]1C(=O)N(C)Cc1cc(C(F)(F)F)cc(C(F)(F)F)c1` (relative stereo) (as salt: hydrochloride) [Example 103, (3R*,4R*)—N-[3,5-bis(trifluoromethyl)benzyl]-1-[2-(cyclopropylamino)-2-oxoethyl]-3-(4-fluoro-2-methylphenyl)-N-methylpiperidine-4-carboxamide monohydrochloride] returned a melting point of 210 to 214 °C.

On to `Cc1cc(F)ccc1[C@@H]1CN(CC(=O)N2CCC(O)CC2)CC[C@H]1C(=O)N(C)Cc1cc(C(F)(F)F)cc(C(F)(F)F)c1` (relative stereo) (as salt: hydrochloride) [Example 104, (3R*,4R*)—N-[3,5-bis(trifluoromethyl)benzyl]-3-(4-fluoro-2-methylphenyl)-1-[2-(4-hydroxypiperidin-1-yl)-2-oxoethyl]-N-methylpiperidine-4-carboxamide monohydrochloride], for which the melting point lay within 220 to 224 °C.

For the compound `Cc1cc(F)ccc1[C@@H]1CN(C(C)(C)C(N)=O)CC[C@H]1C(=O)N(C)Cc1cc(C(F)(F)F)cc(C(F)(F)F)c1` (relative stereo) (as salt: hydrochloride) [Example 113, (3R*,4R*)-1-(2-amino-1,1-dimethyl-2-oxoethyl)-N-[3,5-bis(trifluoromethyl)benzyl]-3-(4-fluoro-2-methylphenyl)-N-methylpiperidine-4-carboxamide monohydrochloride], the melting point is 209 to 211 °C.

Consider `Cc1cc(F)ccc1[C@@H]1CN(C(C)CO)CC[C@H]1C(=O)N(C)Cc1cc(C(F)(F)F)cc(C(F)(F)F)c1` (relative stereo) (as salt: hydrochloride) [Example 120, (3R*,4R*)—N-[3,5-bis(trifluoromethyl)benzyl]-3-(4-fluoro-2-methylphenyl)-1-(2-hydroxy-1-methylethyl)-N-methylpiperidine-4-carboxamide monohydrochloride], for which the melting point lay within 234 to 236 °C.

Regarding `Cc1cc(F)ccc1[C@@H]1CN(S(=O)(=O)CCN2CCOCC2)CC[C@H]1C(=O)N(C)Cc1cc(C(F)(F)F)cc(C(F)(F)F)c1` (relative stereo) (as salt: hydrochloride) [Example 139, (3R*,4R*)—N-[3,5-bis(trifluoromethyl)benzyl]-3-(4-fluoro-2-methylphenyl)-N-methyl-1-[(2-morpholin-4-ylethyl)sulfonyl]piperidine-4-carboxamide monohydrochloride], the melting point was 196 to 198 °C.

Take `Cc1ccccc1[C@@H]1CN(C(=O)C2CCN(C(=O)CO)CC2)CC[C@H]1C(=O)N(C)Cc1cc(C(F)(F)F)cc(C(F)(F)F)c1` (relative stereo) [Example 16, (3R*,4R*)—N-[3,5-bis(trifluoromethyl)benzyl]-1-[(1-glycoloylpiperidin-4-yl)carbonyl]-N-methyl-3-(2-methylphenyl)piperidine-4-carboxamide]: the melting point is 173 to 174 °C.

For the compound `Cc1cc(F)ccc1[C@@H]1CN(C2=CC(=O)CC2)CC[C@H]1C(=O)N(C)Cc1cc(C(F)(F)F)cc(C(F)(F)F)c1` (relative stereo) [Example 118, (3R*,4R*)—N-[3,5-bis(trifluoromethyl)benzyl]-3-(4-fluoro-2-methylphenyl)-N-methyl-1-(3-oxocyclopent-1-en-1-yl)piperidine-4-carboxamide], the melting point lay in the range of 192 to 193 °C. Moreover, the IC50 at substance P receptor was 0.06 nM.

`Cc1cc(F)ccc1[C@@H]1CN(C2=CC(=O)C(C)(C)CC2)CC[C@H]1C(=O)N(C)Cc1cc(C(F)(F)F)cc(C(F)(F)F)c1` (relative stereo) [Example 119, (3R*,4R*)—N-[3,5-bis(trifluoromethyl)benzyl]-1-(4,4-dimethyl-3-oxocyclohex-1-en-1-yl)-3-(4-fluoro-2-methylphenyl)-N-methylpiperidine-4-carboxamide] displayed a melting point of 137 to 138 °C. Also, on substance P receptor, the IC50 was 0.06 nM.

The compound `CCS(=O)(=O)N1CC[C@@H](C(=O)N(C)Cc2cc(C(F)(F)F)cc(C(F)(F)F)c2)[C@H](c2ccc(F)cc2C)C1` (relative stereo) [Example 132, (3R*,4R*)—N-[3,5-bis(trifluoromethyl)benzyl]-1-(ethylsulfonyl)-3-(4-fluoro-2-methylphenyl)-N-methylpiperidine-4-carboxamide] came in with a melting point of 170 to 171 °C. Moreover, the concentration for half-maximal inhibition (IC50) at substance P receptor came out at 0.04 nM.

`CCOCCS(=O)(=O)N1CC[C@@H](C(=O)N(C)Cc2cc(C(F)(F)F)cc(C(F)(F)F)c2)[C@H](c2ccc(F)cc2C)C1` (relative stereo) [Example 138, (3R*,4R*)—N-[3,5-bis(trifluoromethyl)benzyl]-1-[(2-ethoxyethyl)sulfonyl]-3-(4-fluoro-2-methylphenyl)-N-methylpiperidine-4-carboxamide] came in with a melting point of 151 to 153 °C. At substance P receptor, this compound showed an IC50 of 0.078 nM.

`Cc1cc(F)ccc1[C@@H]1CN(S(=O)(=O)N(C)C)CC[C@H]1C(=O)N(C)Cc1cc(C(F)(F)F)cc(C(F)(F)F)c1` (relative stereo) [Example 142, (3R*,4R*)—N-[3,5-bis(trifluoromethyl)benzyl]-1-[(dimethylamino)sulfonyl]-3-(4-fluoro-2-methylphenyl)-N-methylpiperidine-4-carboxamide] registered a melting point of 142 to 144 °C. Besides, the IC50 on substance P receptor was found to be 0.055 nM.

Compound `Cc1cc(F)ccc1[C@@H]1CN(S(=O)(=O)c2ccccn2)CC[C@H]1C(=O)N(C)Cc1cc(C(F)(F)F)cc(C(F)(F)F)c1` (relative stereo) [Example 144, (3R*,4R*)—N-[3,5-bis(trifluoromethyl)benzyl]-3-(4-fluoro-2-methylphenyl)-N-methyl-1-(pyridin-2-ylsulfonyl)piperidine-4-carboxamide] came in with a melting point of 187 to 189 °C. The compound also gave a 50% inhibitory concentration (IC50) at substance P receptor of 0.045 nM.

`Cc1cc(F)ccc1[C@H]1CN(CC(N)=O)CC[C@@H]1C(=O)N(C)[C@@H](C)c1cc(C(F)(F)F)cc(C(F)(F)F)c1` [Example 156, (3S,4S)-1-(2-amino-2-oxoethyl)-N-{(1S)-1-[3,5-bis(trifluoromethyl)phenyl]ethyl}-3-(4-fluoro-2-methylphenyl)-N-methylpiperidine-4-carboxamide] registered a melting point of 161 to 164 °C. Moreover, at substance P receptor, the IC50 stood at 0.024 nM.

With `Cc1cc(F)ccc1[C@H]1CN(S(=O)(=O)C2CC2)CC[C@@H]1C(=O)N(C)[C@@H](C)c1cc(C(F)(F)F)cc(C(F)(F)F)c1` [Example 162, (3S,4S)—N-{(1S)-1-[3,5-bis(trifluoromethyl)phenyl]ethyl}-1-(cyclopropylsulfonyl)-3-(4-fluoro-2-methylphenyl)-N-methylpiperidine-4-carboxamide], the melting point fell in the range of 154 to 156 °C. The compound further registered an IC50 on substance P receptor of 0.081 nM.

The term melting point denotes the temperature, or range, at which the solid turns liquid. Usually IC50 stands for the concentration that inhibits the measured activity by half.
